Consider 2 compounds from paper PMC12406203 (Journal of Medicinal Chemistry, 2025).

Assay in all cases: KINOMEscan
What all share (format): binding

Assay [1] addresses T1, ACVR1B (Homo sapiens, UniProt P36896).
T1 construct: purchased Eurofins DiscoverX, LLC; host or cells: E. coli BL21-derived (T7 phage) or HEK-293
T1 sequence (P36896 24-505): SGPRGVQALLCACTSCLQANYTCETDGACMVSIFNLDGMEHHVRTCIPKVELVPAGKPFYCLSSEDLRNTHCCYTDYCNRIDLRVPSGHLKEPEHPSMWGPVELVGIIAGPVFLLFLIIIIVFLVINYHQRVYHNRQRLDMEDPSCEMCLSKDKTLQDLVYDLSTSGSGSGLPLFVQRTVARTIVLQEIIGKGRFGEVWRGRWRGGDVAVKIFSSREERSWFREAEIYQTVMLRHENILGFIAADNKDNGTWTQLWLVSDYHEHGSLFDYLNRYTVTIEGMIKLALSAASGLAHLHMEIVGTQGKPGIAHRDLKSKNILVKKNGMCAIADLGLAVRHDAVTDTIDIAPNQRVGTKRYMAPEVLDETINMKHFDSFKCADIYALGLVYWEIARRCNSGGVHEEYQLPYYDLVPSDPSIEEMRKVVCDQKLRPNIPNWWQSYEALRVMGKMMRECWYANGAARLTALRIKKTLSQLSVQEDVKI

Assay [2] deals with T2, BTK (Homo sapiens, UniProt Q06187).
T2 construct: purchased Eurofins DiscoverX, LLC; host or cells: E. coli BL21-derived (T7 phage) or HEK-293
T2 sequence (Q06187 whole entry): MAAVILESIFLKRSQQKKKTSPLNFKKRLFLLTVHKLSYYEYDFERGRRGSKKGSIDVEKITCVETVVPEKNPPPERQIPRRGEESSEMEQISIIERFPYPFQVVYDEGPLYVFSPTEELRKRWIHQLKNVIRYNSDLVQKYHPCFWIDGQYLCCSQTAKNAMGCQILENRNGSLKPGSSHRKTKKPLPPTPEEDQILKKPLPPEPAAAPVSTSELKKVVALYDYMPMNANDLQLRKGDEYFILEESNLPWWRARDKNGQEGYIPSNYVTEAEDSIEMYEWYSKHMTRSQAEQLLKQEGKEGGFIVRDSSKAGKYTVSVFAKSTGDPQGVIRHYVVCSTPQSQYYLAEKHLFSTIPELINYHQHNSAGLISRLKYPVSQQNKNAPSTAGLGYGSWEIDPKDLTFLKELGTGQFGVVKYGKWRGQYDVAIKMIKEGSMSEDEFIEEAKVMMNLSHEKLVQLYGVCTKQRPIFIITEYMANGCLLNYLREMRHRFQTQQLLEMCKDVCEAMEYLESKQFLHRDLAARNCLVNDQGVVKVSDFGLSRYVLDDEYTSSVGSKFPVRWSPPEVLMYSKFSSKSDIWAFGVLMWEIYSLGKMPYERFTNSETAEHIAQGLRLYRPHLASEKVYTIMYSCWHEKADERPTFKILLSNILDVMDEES

In assay [3] the target is T3, CDK3 (Homo sapiens, UniProt Q00526).
T3 construct: purchased Eurofins DiscoverX, LLC; host or cells: E. coli BL21-derived (T7 phage) or HEK-293
T3 sequence (Q00526 whole entry): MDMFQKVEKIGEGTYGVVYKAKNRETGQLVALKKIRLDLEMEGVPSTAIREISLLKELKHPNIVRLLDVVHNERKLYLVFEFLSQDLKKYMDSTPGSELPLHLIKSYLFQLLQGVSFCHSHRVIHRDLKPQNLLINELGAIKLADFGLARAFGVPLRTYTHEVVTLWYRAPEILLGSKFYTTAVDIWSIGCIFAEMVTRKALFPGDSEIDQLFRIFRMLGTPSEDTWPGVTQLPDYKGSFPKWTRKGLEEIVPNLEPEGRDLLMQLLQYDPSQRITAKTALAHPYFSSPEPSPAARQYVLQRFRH

Assay [4] addresses T4, ERK 2 (Homo sapiens, UniProt P28482).
T4 construct: purchased Eurofins DiscoverX, LLC; host or cells: E. coli (T7 phage) or HEK-293

In assay [5] the target is T5, ERK1 (Homo sapiens, UniProt P27361).
T5 construct: purchased Eurofins DiscoverX, LLC; host or cells: E. coli (T7 phage) or HEK-293
T5 sequence (P27361 whole entry): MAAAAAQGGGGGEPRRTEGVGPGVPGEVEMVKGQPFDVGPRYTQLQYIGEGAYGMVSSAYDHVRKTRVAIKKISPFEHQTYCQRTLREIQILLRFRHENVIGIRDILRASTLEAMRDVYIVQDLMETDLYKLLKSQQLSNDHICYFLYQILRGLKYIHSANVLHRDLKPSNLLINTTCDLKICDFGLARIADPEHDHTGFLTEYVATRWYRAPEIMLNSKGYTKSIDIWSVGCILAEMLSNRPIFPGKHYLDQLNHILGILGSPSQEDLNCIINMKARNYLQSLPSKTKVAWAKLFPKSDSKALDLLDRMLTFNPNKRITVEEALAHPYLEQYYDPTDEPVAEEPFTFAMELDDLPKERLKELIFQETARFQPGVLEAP

Assay [6] concerns the target T6, JAK2(JH1domain-catalytic) (Homo sapiens, UniProt O60674).
T6 construct: JAK2(JH1domain-; purchased Eurofins DiscoverX, LLC; host or cells: E. coli (T7 phage) or HEK-293

Assay [7] has as its target T7, PDPK1 (Homo sapiens, UniProt O15530).
T7 construct: purchased Eurofins DiscoverX, LLC; host or cells: E. coli BL21-derived host (T7 phage) or HEK-293
T7 sequence (O15530 1-556): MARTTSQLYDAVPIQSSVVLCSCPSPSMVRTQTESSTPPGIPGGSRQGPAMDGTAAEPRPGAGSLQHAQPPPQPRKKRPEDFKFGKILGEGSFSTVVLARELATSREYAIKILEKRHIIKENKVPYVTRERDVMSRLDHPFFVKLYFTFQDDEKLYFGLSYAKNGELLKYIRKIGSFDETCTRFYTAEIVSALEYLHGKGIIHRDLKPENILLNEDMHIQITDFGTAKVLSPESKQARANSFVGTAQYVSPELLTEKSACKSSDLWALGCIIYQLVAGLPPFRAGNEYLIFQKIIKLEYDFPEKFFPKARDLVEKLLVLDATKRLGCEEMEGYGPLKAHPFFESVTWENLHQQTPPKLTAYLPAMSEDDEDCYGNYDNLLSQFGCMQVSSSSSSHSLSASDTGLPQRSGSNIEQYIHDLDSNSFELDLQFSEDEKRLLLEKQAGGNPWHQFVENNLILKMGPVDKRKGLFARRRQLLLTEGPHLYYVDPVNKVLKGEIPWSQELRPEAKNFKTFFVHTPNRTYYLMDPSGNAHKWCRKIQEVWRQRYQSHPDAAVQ

The target of assay [8] is T8, PRKCE (Homo sapiens, UniProt Q02156).
T8 construct: purchased Eurofins DiscoverX, LLC; host or cells: E. coli BL21-derived host (T7 phage) or HEK-293
T8 sequence (Q02156 1-737): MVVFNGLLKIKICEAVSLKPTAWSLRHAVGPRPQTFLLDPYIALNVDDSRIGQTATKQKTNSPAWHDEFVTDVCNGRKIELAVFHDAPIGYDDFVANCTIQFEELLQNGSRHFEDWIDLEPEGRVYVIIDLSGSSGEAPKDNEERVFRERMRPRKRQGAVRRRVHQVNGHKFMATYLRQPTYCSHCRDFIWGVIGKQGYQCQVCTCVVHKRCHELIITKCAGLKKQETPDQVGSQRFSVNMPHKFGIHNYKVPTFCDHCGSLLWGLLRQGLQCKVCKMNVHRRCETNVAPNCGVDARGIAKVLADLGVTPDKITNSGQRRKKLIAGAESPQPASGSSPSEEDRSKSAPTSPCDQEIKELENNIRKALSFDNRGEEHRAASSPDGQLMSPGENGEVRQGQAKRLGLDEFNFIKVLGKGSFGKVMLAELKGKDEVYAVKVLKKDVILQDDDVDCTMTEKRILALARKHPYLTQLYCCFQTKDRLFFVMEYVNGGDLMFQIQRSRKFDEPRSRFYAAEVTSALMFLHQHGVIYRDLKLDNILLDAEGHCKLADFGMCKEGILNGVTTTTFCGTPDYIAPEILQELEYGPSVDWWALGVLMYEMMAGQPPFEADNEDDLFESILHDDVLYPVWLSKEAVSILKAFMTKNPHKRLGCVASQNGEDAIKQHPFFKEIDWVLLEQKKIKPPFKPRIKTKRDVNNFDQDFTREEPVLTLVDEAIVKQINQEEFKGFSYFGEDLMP

T6 sequence (O60674 849-1124 limits assumed): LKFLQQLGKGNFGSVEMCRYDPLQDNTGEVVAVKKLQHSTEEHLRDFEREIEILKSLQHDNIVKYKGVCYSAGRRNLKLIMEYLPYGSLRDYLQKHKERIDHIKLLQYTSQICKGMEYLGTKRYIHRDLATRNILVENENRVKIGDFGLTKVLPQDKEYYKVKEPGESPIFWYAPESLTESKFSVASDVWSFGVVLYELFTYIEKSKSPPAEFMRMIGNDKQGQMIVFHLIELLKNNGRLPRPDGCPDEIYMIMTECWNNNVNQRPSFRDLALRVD
T4 sequence (P28482 whole entry): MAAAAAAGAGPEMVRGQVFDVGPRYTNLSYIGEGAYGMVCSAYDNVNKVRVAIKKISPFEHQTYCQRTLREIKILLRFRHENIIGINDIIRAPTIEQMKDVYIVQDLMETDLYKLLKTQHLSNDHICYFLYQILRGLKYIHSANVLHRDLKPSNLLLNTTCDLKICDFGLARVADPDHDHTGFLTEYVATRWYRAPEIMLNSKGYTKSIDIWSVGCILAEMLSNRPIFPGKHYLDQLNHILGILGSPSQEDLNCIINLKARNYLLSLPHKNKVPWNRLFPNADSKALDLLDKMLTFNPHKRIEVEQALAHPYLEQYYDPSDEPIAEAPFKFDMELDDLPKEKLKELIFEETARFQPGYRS

`CC(C)Cn1ncc2cc(Cc3ccc(F)cc3F)c(C(=O)NCCN(C)C)cc21` [Compound 94, 5-(2,4-Difluorobenzyl)-N-(2-(dimethylamino)ethyl)-1-isobutyl-1H-indazole-6-carboxamide]: the “RA @ 1000nM” value in assay [1] came out at 100%; in assay [2] it was 100%; in assay [3], 100%; in assay [4] it was 100%; in assay [5], 87%; in assay [6], 98%. The results for the “RA @ 1000nM” value in assay [7] and in assay [8] were 88% and 80%, respectively. The “RA @ 10000nM” value in assay [1] is given as 100%; in assay [2] it was 100%; in assay [3], 1.3%; in assay [4], 98%; in assay [5] it was 87%; in assay [6] it was 100%. Also, the “RA @ 10000nM” value in assay [7] worked out at 74%; in assay [8], 80%.
Turning to `CN(C)CCNC(=O)c1cc2c(cnn2CC2CCCCC2)cc1Cc1ccc(F)cc1F` [Compound 95, 1-(Cyclohexylmethyl)-5-(2,4-difluorobenzyl)-N-(2-(dimethylamino)ethyl)-1H-indazole-6-carboxamide], the “RA @ 1000nM” value in assay [1] worked out at 100%; in assay [2] it was 100%; in assay [3] it was 100%; in assay [4], 100%; in assay [5] it was 96%; in assay [6], 100%. Besides, the “RA @ 1000nM” value in assay [7] is 100%; in assay [8] it was 79%. Also, the “RA @ 10000nM” value is reported as 100% in assay [1]; 100% in assay [2]; 100% in assay [3]; 100% in assay [4]; 90% in assay [5]; 100% in assay [6]. Also, the “RA @ 10000nM” value in assay [7] is given as 87%; in assay [8] it was 76%.
